The source of these data is US20180368410A1, “MICROBIOCIDAL OXADIAZOLE DERIVATIVES” (SYNGENTA PARTICIPATIONS AG, priority 2015, published 2018).

As usually defined, the melting point is the temperature of the solid-liquid transition.

The test system of data set [1] is Glomerella Lacenarium (Colletotrichum lacenarium). Description: Glomerella lagenarium (Colletotrichum lagenarium) liquid culture / cucumber / preventative (anthracnose). The settings on record: 20 ppm in the applied formulation, liquid culture in PDB, 24° C., inhibition of growth measured photometrically 3 to 4 days after application, vs untreated control, read-out: disease control. Format: cell-based. In short, it runs like this: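 Spore-based broth assay: conidia mixed into PDB meet compound from a DMSO solution in 96-well format, incubate at 24° C., then inhibition of growth is determined by photometry 3–4 days later relative to the untreated check.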

Data set [2] relates to Puccinia recondita f. Sp. Tritici. The data set can be described thus: Puccinia recondita f. sp. tritici / wheat / leaf disc preventative (brown rust). In kind it is in vivo, Puccinia recondita f. sp. tritici on wheat cv. Kanzler. The conditions noted are these: foliar, 200 ppm in the applied formulation, inoculated 1 day after application, assessed 7 to 9 days after application, vs untreated control leaf disks, read-out: disease control. In short, it runs like this: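 Wheat cv. Kanzler leaf segments on agar were sprayed with compound (DMSO stock diluted with 0.025% Tween20) 1 day before inoculation with spores. Segments were held at 19 °C, 75% rh, 12 h light/dark. Percent disease control versus untreated was scored 7–9 days after application.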

The subject of a further data set is Phakopsora pachyrhizi. Description: Phakopsora pachyrhizi / soybean / leaf disc preventative (Asian soybean rust). Format: in vivo, Phakopsora pachyrhizi on soybean. The settings on record: foliar, 200 ppm in the applied formulation, inoculated one day after application, assessed 12 to 14 days after application, vs untreated control leaf disks, read-out: disease control. In short, it runs like this:
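Read-out is percent disease control relative to untreated check discs, assessed once untreated discs show adequate disease, 12 to 14 days after application. Compounds, tested at 200 ppm in the applied formulation, are sprayed onto soybean leaf discs one day before inoculation with a spore suspension.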

For data set [3], the system named is Puccinia recondita f. Sp. Triticil. The data set can be described thus: Puccinia recondita f. sp. tritici / wheat / leaf disc curative (brown rust). Format: in vivo, Puccinia recondita f. sp. tritici on wheat cv. Kanzler. The conditions noted are these: foliar, 200 ppm in the applied formulation, applied 1 day after inoculation, assessed 6 to 8 days after application, vs untreated control leaf disks, read-out: disease control. In short, it runs like this: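 Compounds, prepared from DMSO solutions of at most 10 mg/ml and diluted just before spraying, are applied curatively to inoculated Kanzler wheat leaf segments. Segments are incubated at 19° C and 75% RH in a climate cabinet; disease control relative to untreated is evaluated 6 to 8 days later.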

Another data set has as its system Uromyces viciae-Fabael. The data set can be described thus: Uromyces viciae-fabae / field bean / leaf disc preventative (faba-bean rust). In kind it is in vivo, Uromyces viciae-fabae on field bean. The settings on record: foliar, 288 h, 100 ppm in the applied formulation, inoculated two hours after application, assessed 12 days after application, vs untreated control leaf discs, read-out: disease control. How it is done:
Leaf disks or leaf segments of various plant species are cut from plants grown in a greenhouse. The cut leaf disks or segments are placed in multiwell plates (24-well format) onto water agar. The leaf disks are sprayed with a test solution before (preventative) or after (curative) inoculation. Compounds to be tested are prepared as DMSO solutions (max. 10 mg/ml) which are diluted to the appropriate concentration with 0.025% Tween20 just before spraying. The inoculated leaf disks or segments are incubated under defined conditions (temperature, relative humidity, light, etc.) according to the respective test system. A single evaluation of disease level is carried out 3 to 14 days after inoculation, depending on the pathosystem. Percent disease control relative to the untreated check leaf disks or segments is then calculated.
Field bean leaf discs are placed on water agar in multiwell plates (96-well format) and 10 μl of the formulated test compound diluted in acetone and a spreader pipetted onto the leaf disc. Two hours after application leaf discs are inoculated by spraying a spore suspension on the lower leaf surface. The leaf discs are incubated in a climate cabinet at 22° C. with 18 hour day and 70% relative humidity. The activity of a compound is assessed as percent disease control compared to untreated when an appropriate level of disease damage appears in untreated check leaf disks (12 days after application).
The following compounds at 100 ppm in the applied formulation give at least 80% disease control in this test when compared to untreated control leaf discs under the same conditions, which show extensive disease development.

`O=C(NCc1ccc(-c2noc(C(F)(F)F)n2)c(F)c1)C1CC1` [Compound 1.57, N-[[3-fluoro-4-[5-(trifluoromethyl)-1,2,4-oxadiazol-3-yl]phenyl]methyl] cyclopropanecarboxamide] yielded a melting point of 139 to 140 °C. Besides, the inhibition of growth at 20 ppm in data set [1] is not below 80%. Further, the pest or weed control at 200 ppm in data set [2] is not below 80%. In addition, the pest or weed control at 200 ppm in the data set on Phakopsora pachyrhizi was not below 80%. Besides, in data set [3], the pest or weed control at 200 ppm is not below 80%.

For `O=C(NCCc1ccc(-c2noc(C(F)(F)F)n2)cc1)C1CCCO1` (stereo not drawn) [Compound 1.97, N-[2-[4-[5-(trifluoromethyl)-1,2,4-oxadiazol-3-yl]phenyl]ethyl] tetrahydrofuran-2-carboxamide], the melting point was 68.7 to 70.5 °C. The inhibition of growth at 20 ppm in data set [1] was not below 80%. For the same compound, the pest or weed control at 200 ppm in data set [2] was not below 80%. Also, the pest or weed control at 200 ppm in the data set with Phakopsora pachyrhizi is not below 80%. In addition, the pest or weed control at 200 ppm in data set [3] is not below 80%.

Compound `O=C(NCc1ccc(-c2noc(C(F)(F)F)n2)cc1)C1CCCO1` (stereo not drawn) [Compound 1.5, N-[[4-[5-(trifluoromethyl)-1,2,4-oxadiazol-3-yl]phenyl]methyl] tetrahydrofuran-2-carboxamide] gave a melting point of 76 to 83 °C. The pest or weed control at 100 ppm in the data set on Uromyces viciae-Fabael is not below 80%. Also, the inhibition of growth at 20 ppm in data set [1] was not below 80%. For the same compound, the pest or weed control at 200 ppm in data set [2] is not below 80%. Further, the pest or weed control at 200 ppm in the data set on Phakopsora pachyrhizi is not below 80%. Besides, in data set [3], the pest or weed control at 200 ppm is not below 80%.

In the case of `O=C(NCc1ccc(-c2noc(C(F)(F)F)n2)cc1)c1ccccc1Cl` [Compound 1.3, 2-chloro-N-[[4-[5-(trifluoromethyl)-1,2,4-oxadiazol-3-yl]phenyl]methyl]benzamide], the melting point was in the range of 136 to 142 °C. The pest or weed control at 100 ppm in the data set on Uromyces viciae-Fabael was not below 80%. For the same compound, the inhibition of growth at 20 ppm in data set [1] was not below 80%. In addition, the pest or weed control at 200 ppm in data set [2] was not below 80%. For the same compound, in the data set on Phakopsora pachyrhizi, the pest or weed control at 200 ppm was not below 80%.

`O=C(NCc1ccc(-c2noc(C(F)(F)F)n2)c(F)c1F)c1ccccc1Cl` [Compound 1.56, 2-chloro-N-[[2,3-difluoro-4-[5-(trifluoromethyl)-1,2,4-oxadiazol-3-yl]phenyl]methyl] benzamide] yielded a melting point of 144 to 150 °C. Besides, the inhibition of growth at 20 ppm in data set [1] is not below 80%. Besides, in data set [2], the pest or weed control at 200 ppm is not below 80%. Moreover, the pest or weed control at 200 ppm in the data set with Phakopsora pachyrhizi is not below 80%.

`O=C(NCc1ccc(-c2noc(C(F)(F)F)n2)c(F)c1F)C1CCCO1` (stereo not drawn) [Compound 1.80, N-[[2,3-difluoro-4-[5-(trifluoromethyl)-1,2,4-oxadiazol-3-yl]phenyl]methyl] tetrahydrofuran-2-carboxamide] gave a melting point of 80 to 86 °C. In data set [1], the inhibition of growth at 20 ppm was not below 80%. The pest or weed control at 200 ppm in data set [2] is not below 80%. For the same compound, the pest or weed control at 200 ppm in the data set with Phakopsora pachyrhizi was not below 80%. The pest or weed control at 200 ppm in data set [3] was not below 80%.

Compound `O=C(NCc1ccc(-c2noc(C(F)(F)F)n2)cc1)C1(F)CC1` [Compound 1.2, 1-fluoro-N-[[4-[5-(trifluoromethyl)-1,2,4-oxadiazol-3-yl]phenyl]methyl] cyclopropanecarboxamide] displayed a melting point of 101 to 108 °C. Also, the pest or weed control at 100 ppm with Uromyces viciae-Fabael was not below 80%. The inhibition of growth at 20 ppm in data set [1] is not below 80%. For the same compound, the pest or weed control at 200 ppm in data set [2] was not below 80%. Moreover, the pest or weed control at 200 ppm in the data set on Phakopsora pachyrhizi was not below 80%. Besides, the pest or weed control at 200 ppm in data set [3] is not below 80%.

The compound `O=C(NCc1ccc(-c2noc(C(F)(F)F)n2)cc1)C1CC1` [Compound 1.1, N-[[4-[5-(trifluoromethyl)-1,2,4-oxadiazol-3-yl]phenyl]methyl] cyclopropanecarboxamide] yielded a melting point of 183 to 190 °C. For the same compound, the pest or weed control at 100 ppm in the data set with Uromyces viciae-Fabael is not below 80%. Further, the inhibition of growth at 20 ppm in data set [1] is not below 80%. Besides, the pest or weed control at 200 ppm in data set [2] is not below 80%. Further, the pest or weed control at 200 ppm with Phakopsora pachyrhizi is not below 80%. The pest or weed control at 200 ppm in data set [3] is not below 80%.

Regarding `O=C(NCc1ccc(-c2noc(C(F)(F)F)n2)c(F)c1)c1ccccc1Cl` [Compound 1.58, 2-chloro-N-[[3-fluoro-4-[5-(trifluoromethyl)-1,2,4-oxadiazol-3-yl]phenyl]methyl] benzamide], the melting point is 146 to 148 °C. Further, the inhibition of growth at 20 ppm in data set [1] is not below 80%. In data set [2], the pest or weed control at 200 ppm was not below 80%. In addition, the pest or weed control at 200 ppm with Phakopsora pachyrhizi is not below 80%.

`Cc1occc1C(=O)NCc1ccc(-c2noc(C(F)(F)F)n2)cc1` [Compound 1.4, 2-methyl-N-[[4-[5-(trifluoromethyl)-1,2,4-oxadiazol-3-yl]phenyl]methyl]furan-3-carboxamide] came in with a melting point of 102 to 112 °C. In addition, in the data set with Uromyces viciae-Fabael, the pest or weed control at 100 ppm was not below 80%. Further, in data set [1], the inhibition of growth at 20 ppm is not below 80%. For the same compound, the pest or weed control at 200 ppm in data set [2] was not below 80%. The pest or weed control at 200 ppm in the data set on Phakopsora pachyrhizi is not below 80%. Also, the pest or weed control at 200 ppm in data set [3] was not below 80%.

The compound `O=C(NCCc1ccc(-c2noc(C(F)(F)F)n2)cc1)C1CC1` [Compound 1.96, N-[2-[4-[5-(trifluoromethyl)-1,2,4-oxadiazol-3-yl]phenyl]ethyl] cyclopropanecarboxamide] displayed a melting point of 150 to 151.1 °C. In data set [1], the inhibition of growth at 20 ppm is not below 80%. In data set [2], the pest or weed control at 200 ppm is not below 80%. Moreover, the pest or weed control at 200 ppm in the data set on Phakopsora pachyrhizi was not below 80%. Further, in data set [3], the pest or weed control at 200 ppm is not below 80%.

Take `O=C(NCc1ccc(-c2noc(C(F)(F)F)n2)c(F)c1)C1CCCO1` (stereo not drawn) [Compound 1.59, N-[[3-fluoro-4-[5-(trifluoromethyl)-1,2,4-oxadiazol-3-yl]phenyl]methyl] tetrahydrofuran-2-carboxamide]: the melting point is 56 to 58 °C. Moreover, the inhibition of growth at 20 ppm in data set [1] is not below 80%. Besides, the pest or weed control at 200 ppm in data set [2] is not below 80%. The pest or weed control at 200 ppm in the data set on Phakopsora pachyrhizi was not below 80%. The pest or weed control at 200 ppm in data set [3] is not below 80%.

Compound `O=C(NCc1ccc(-c2noc(C(F)(F)F)n2)c(F)c1F)C1CC1` [Compound 1.55, N-[[2,3-difluoro-4-[5-(trifluoromethyl)-1,2,4-oxadiazol-3-yl]phenyl]methyl] cyclopropanecarboxamide] showed a melting point of 144 to 150 °C. In data set [1], the inhibition of growth at 20 ppm is not below 80%. Also, the pest or weed control at 200 ppm in data set [2] is not below 80%. Further, the pest or weed control at 200 ppm with Phakopsora pachyrhizi was not below 80%. In addition, in data set [3], the pest or weed control at 200 ppm is not below 80%.

For `CC1=NOC(C(=O)NCc2ccc(-c3noc(C(F)(F)F)n3)c(F)c2)C1` (stereo not drawn) [Compound 1.60, N-[[3-fluoro-4-[5-(trifluoromethyl)-1,2,4-oxadiazol-3-yl]phenyl]methyl]-3-methyl-4,5-dihydroisoxazole-5-carboxamide], the melting point is 134 to 138 °C. Also, the inhibition of growth at 20 ppm in data set [1] was not below 80%. Also, in data set [2], the pest or weed control at 200 ppm was not below 80%. Further, the pest or weed control at 200 ppm with Phakopsora pachyrhizi was not below 80%. In addition, the pest or weed control at 200 ppm in data set [3] was not below 80%.
